Consider 3 compounds from patent publication US4940715A, “5H-pyrazolo[4,3-A] quinolizin-5-one compounds exhibiting therapeutic activities” (Kissei Pharmaceutical Co., Ltd., priority 1988, dated 1990).

Molecules are shown by their SMILES.

As a reminder, the inhibition is the change of the read-out against control, counted positive when it falls. A lower inhibition goes with little suppression.

For assay [1], the system named is IgG secreted into culture supernatant by BALB/c mouse spleen cells. The assay is described as follows: Determination of IgG produced in in vitro culture of spleen cells (adoptive secondary immune response against DNP-As), ELISA. Particulars: 96 h, spleen cells 5×10^6 cells/ml, 4 days, 37° C.; for inhibition at 10 µg/mL: 10 μg/ml. In kind it is cell-based. On the procedure:
(§1) The antiallergic activities of the 5H-pyrazolo[4,3-a]quinolizin-5-one compounds of formula (I) are also confirmed by inhibition of the rat homologous passive cutaneous anaphylaxis (hereinafter referred to as PCA) reaction.
(§2) Determination of Igs produced in in vitro culture
(§3) BALB/c mice were immunized intraperitoneally with 5 μg of DNP-As adsorbed on 4 mg aluminum hydroxide gel. Four weeks after the immunization, the spleens were excised from the mice and 5×10^7 spleen cells were transferred intravenously into the recipient mice which had been exposed to 600 rad of X-ray irradiation. Immediately after the cell transfer, the recipients were then immunized intraperitoneally with 5 μg of DNP-As adsorbed on 4 mg aluminum hydroxide gel to induce adoptive secondary immune response. Further 4 weeks after the immunization of recipients, the spleens were excised from them and the spleen cell suspensions containing 5×10^6 cells/ml were cultured with or without a compound to be tested in 96-well micro-titer plates at 37° C. for 4 days. IgE and IgG secreted into the culture supernatant was each determined correspondingly by enzyme-linked immunosolvent assay and the inhibitory effect was calculated according to the following equation. [formula]
Background: In an ELISA, binding on a coated surface is turned into a signal by an enzyme label.

Assay [2] relates to IgE secreted into culture supernatant by BALB/c mouse spleen cells. The assay is described as follows: Determination of IgE produced in in vitro culture of spleen cells (adoptive secondary immune response against DNP-As), ELISA. In kind it is cell-based. The following applies: 96 h, spleen cells 5×10^6 cells/ml, 4 days, 37° C.; for inhibition at 10 µg/mL: 10 μg/ml. On the procedure:
as §1, §2, §3

In the case of `CCCc1nn(C(C)=O)c2c(C#N)c(=O)n3ccccc3c12` [S-26, 3-Acetyl-4-cyano-1-propyl-5H-pyrazolo[4,3-a]quinolizin-5-one], the inhibition at 10 µg/mL in assay [1] stood at 18%; in assay [2] it was 55%.
With `CCc1nn(C(C)=O)c2c(C#N)c(=O)n3ccccc3c12` [S-31], the inhibition at 20 µg/mL in assay [1] (20 μg/ml) was 33%; in assay [2] (20 μg/ml), 75%.
Turning to `CC(=O)n1nc(CC(C)C)c2c1c(C#N)c(=O)n1ccccc21` [S-38], the inhibition at 10 µg/mL in assay [1] came to 4%; in assay [2], 40%.
